Where “and” joins values, the source holds several entries; their conditions need not be identical. Identical values can stand only once. Counter-ions that a name gives are not always drawn. Like-named read-outs stand apart in the source and are kept apart here.
Assay: Pharmacokinetic study in humans, sodium salt in enteric capsules, single and multiple dose (Example 2)
Format: in vivo, human
Conditions: for AUClast_D / Cmax D / AUC_TAU_D: dose-normalised; for AUC(0-t) / Cmax / Tmax / AUC / concentration at 24 h: human, plasma, oral; for Cmax: read-out: Cmax; for Tmax: read-out: Tmax; for concentration at 24 h: read-out: Clast
Method: An open, randomised, parallel-group study in healthy volunteers (hereafter referred to as subjects) was conducted to evaluate the exposure of 4-chloro-N-[2-[(4-chlorophenyl)methyl]-3-oxo-1,2,4-thiadiazol-5-yl]benzamide after single and multiple dose administration of 3 dose levels of the sodium salt of 4-chloro-N-[2-[(4-chlorophenyl)methyl]-3-oxo-1,2,4-thiadiazol-5-yl]benzamide and to evaluate combination with dapagliflozin at steady state.
For the study, Vcaps enteric capsules, size 0, were individually filled with 200 mg of milled test material together with 2 mg of sodium docusate, 125 mg of mannitol and 6.5 mg of sodium lauryl sulfate. […]
A screening visit (Visit 1) was performed within 28 days before randomisation and the start of IMP administration. The subjects were confined to the research clinic from the evening before Day 1 (Visit 2; Day—1). […]
Pre-dose safety assessments as well as pre- and post-dose PK assessments were performed. The subjects left the clinic after the last PK-sample on Day 1 and returned for a 24 h PK sample and dosing on Day 2 (Visit 3).
Subjects self-administered the test material at home from Day 3 to Day 15. A telephone visit to check compliance, AE status and use of concomitant medications will be performed on Day 8 (Visit 4).
The subjects returned to the clinic on Days 16 and 17 (Visits 5 and 6), for PK sampling and AE assessment. Visit 6 continued in the evening of Day 17, when the subjects were confined to the clinic until Day 18. On Day 18, pre- and post-dose PK and safety assessments were performed. The subjects left the clinic after the last PK sample on Day 18 and returned for a 24 h PK sample and dosing on Day 19 (Visit 7).
On Day 19 (Visit 7) subjects began co-administration of the test material and dapagliflozin (Forxiga), 10 mg per day for 7 days (Day 19 to Day 25). The subjects returned to the clinic on Day 25 (Visit 8) for final dosing, PK and safety assessments. A final end-of-study visit (Visit 9) for follow-up of safety assessments was conducted 28 days (+14 days) after Visit 8 or after early withdrawal.
Venous blood samples (approximately 5 mL) for the determination of plasma concentrations of 4-chloro-N-[2-[(4-chlorophenyl)methyl]-3-oxo-1,2,4-thiadiazol-5-yl]benzamide after administration of the test material were collected through an indwelling venous catheter on Days 1, 2, 16 to 19 and 25.
The blood samples were collected in pre-labelled Li-Heparin tubes. All the collected blood samples were be centrifuged at 1500 G for 10 minutes to separate plasma within 60 minutes from the sample is drawn. The separated plasma from each blood sample was be divided into 2 aliquots in pre-labelled polypropylene cryotubes (A and B samples, approximately 750 μL in each tube) and frozen at <−70° C. On Day 25, the plasma was divided in to 3 aliquots of at least 500 μL (A and B samples for the test material, and 1 sample for potential future analysis of dapagliflozin).
Samples for determination of plasma concentrations of 4-chloro-N[2-[(4-chlorophenyl)methyl]-3-oxo-1,2,4-thiadiazol-5-yl]benzamide were analysed by Lablytica Life Science AB, Uppsala, Sweden by means of a validated LS-MS/MS method.
The data of plasma concentration to respective time points for the analyte (4-chloro-N-[2-[(4-chlorophenyl)methyl]-3-oxo-1,2,4-thiadiazol-5-yl]benzamide) were used for the pharmacokinetic analysis. Pharmacokinetic analysis was performed using non-compartmental analysis (NCA) module of Phoenix WinNonlin 8.1 software to determine the following pharmacokinetic parameters.
After single dose administration of test material: • AUC0-24, Cmax, Tmax and dose proportionality (based on AUC0-24 and Cmax) (secondary endpoints). […]

[1] = 2000 mg Dose Group, capsule once daily, Day 18, Mean
[2] = 2000 mg Dose Group, capsule once daily, Day 18, Median
[3] = capsule once daily, Day 18, individual subjects, listed as test material
[4] = 200 mg, mean, dose group 200, capsule, Day 1
[5] = 200 mg, mean, dose group 200, capsule, Day 18
[6] = 400 mg, 400 mg Dose Group, capsules once daily, Day 18, Geometric Mean
[7] = 400 mg, 400 mg Dose Group, capsules once daily, Day 18, Mean
[8] = 400 mg, 400 mg Dose Group, capsules once daily, Day 18, Median
[9] = 400 mg, 400 mg Dose Group, capsules once daily, Day 18, individual subjects
[10] = 400 mg, mean, dose group 400, capsule, Day 1
[11] = 400 mg, mean, dose group 400, capsule, Day 18
[12] = 800 mg, 800 mg Dose Group, capsules once daily, Day 18, Geometric Mean
[13] = 800 mg, 800 mg Dose Group, capsules once daily, Day 18, Mean
[14] = 800 mg, 800 mg Dose Group, capsules once daily, Day 18, Median
[15] = 800 mg, 800 mg Dose Group, capsules once daily, Day 18, individual subjects
[16] = 800 mg, mean, dose group 800, capsule, Day 1
[17] = 800 mg, mean, dose group 800, capsule, Day 18
[18] = 2000 mg, 2000 mg Dose Group, capsule once daily, Day 18, Geometric Mean
[19] = 2000 mg, 2000 mg Dose Group, capsule once daily, Day 18, Mean
[20] = 2000 mg, 2000 mg Dose Group, capsule once daily, Day 18, Median

- AUClast_D [1]: 5.305 µg·h/mL/mg
- Cmax D [1]: 0.2493 µg/mL/mg
- AUC_TAU_D [2]: 4.752 µg·h/mL/mg
- AUClast_D [2]: 4.888 µg·h/mL/mg
- Cmax D [2]: 0.2403 µg/mL/mg
- AUC(0-t) [4]: 87.4 µg·h/mL
- Cmax [4]: 7.19 µg/mL
- Tmax [4]: 15 h
- AUC(0-t) [5]: 1060 µg·h/mL
- Cmax [5]: 49.9 µg/mL
- Tmax [5]: 8.03 h
- Cmax (200 mg, repeated dosing, study of Example 2): ~50 µg/mL
- AUC [6]: 1500 µg·h/mL
- AUC(0-t) [6]: 1520 µg·h/mL
- Cmax [6]: 69.6 µg/mL
- Tmax [6]: 4.27 h
- AUC [7]: 1530 µg·h/mL
- AUC(0-t) [7]: 1540 µg·h/mL
- Cmax [7]: 70.8 µg/mL
- Tmax [7]: 8.31 h
- AUC [8]: 1400 µg·h/mL
- AUC(0-t) [8]: 1480 µg·h/mL
- Cmax [8]: 66.1 µg/mL
- Tmax [8]: 5 h
- AUC [9]: 1210 µg·h/mL
- AUC(0-t) [9]: 1210 µg·h/mL
- Cmax [9]: 56.2 µg/mL
- AUC(0-t) [10]: 158 µg·h/mL
- Cmax [10]: 10.6 µg/mL
- Tmax [10]: 15.4 h
- AUC(0-t) [11]: 1540 µg·h/mL
- Cmax [11]: 70.8 µg/mL
- Tmax [11]: 8.31 h
- AUC [12]: 2530 µg·h/mL
- AUC(0-t) [12]: 2590 µg·h/mL
- concentration at 24 h [12]: 108 µg/mL
- Cmax [12]: 118 µg/mL
- AUC [13]: 2560 µg·h/mL
- AUC(0-t) [13]: 2620 µg·h/mL
- concentration at 24 h [13]: 110 µg/mL
- Cmax [13]: 118 µg/mL
- Tmax [13]: 11.5 h
- AUC [14]: 2730 µg·h/mL
- AUC(0-t) [14]: 2670 µg·h/mL
- concentration at 24 h [14]: 115 µg/mL
- Cmax [14]: 122 µg/mL
- Tmax [14]: 9.99 h
- AUC [15]: 1810 µg·h/mL
- AUC(0-t) [15]: 1800 µg·h/mL
- concentration at 24 h [15]: 73.7 µg/mL
- Cmax [15]: 87.3 µg/mL
- AUC(0-t) [16]: 340 µg·h/mL
- Cmax [16]: 22.8 µg/mL
- Tmax [16]: 15.6 h
- AUC(0-t) [17]: 2620 µg·h/mL
- Cmax [17]: 118 µg/mL
- Tmax [17]: 11.5 h
- AUC [18]: 987 µg·h/mL
- AUC(0-t) [18]: 1030 µg·h/mL
- Cmax [18]: 48.6 µg/mL
- AUC [19]: 1020 µg·h/mL
- AUC(0-t) [19]: 1060 µg·h/mL
- concentration at 24 h [19]: 44 µg/mL
- Cmax [19]: 49.9 µg/mL
- Tmax [19]: 8.03 h
- AUC [20]: 950 µg·h/mL
- AUC(0-t) [20]: 978 µg·h/mL
- Cmax [20]: 48.1 µg/mL
- Tmax [20]: 6.5 h
- peak blood plasma concentration (repeated dosing of 200 mg in the form of a capsule): ≥ 50 µg/mL
- blood plasma concentration versus same amount of free base form (repeated dosing, 200 to 1000 mg/day): approximately five-fold higher
Compound: O=C(Nc1nc(=O)n(Cc2ccc(Cl)cc2)s1)c1ccc(Cl)cc1 [Compound of formula II, sodium salt of 4-chloro-N-[2-[(4-chlorophenyl)methyl]-3-oxo-1,2,4-thiadiazol-5-yl]benzamide]
- AUC_TAU_D (2000 mg Dose Group, capsule once daily, Day 18, individual subjects, listed as test material): 5.67 µg·h/mL/mg and 4.2 µg·h/mL/mg and 8.01 µg·h/mL/mg and 4.01 µg·h/mL/mg and 4.75 µg·h/mL/mg and 3.87 µg·h/mL/mg and 5.06 µg·h/mL/mg
- AUClast_D [3]: 5.65 µg·h/mL/mg and 6.98 µg·h/mL/mg and 4.19 µg·h/mL/mg and 7.98 µg·h/mL/mg and 4 µg·h/mL/mg and 4.74 µg·h/mL/mg and 3.86 µg·h/mL/mg and 5.04 µg·h/mL/mg
- Cmax D [3]: 0.261 µg/mL/mg and 0.31 µg/mL/mg and 0.21 µg/mL/mg and 0.36 µg/mL/mg and 0.201 µg/mL/mg and 0.231 µg/mL/mg and 0.173 µg/mL/mg and 0.25 µg/mL/mg
